In data set [1] the test system is Hexobarbital sleeping time. The experiment in a line: animal or person. The data set is classed as in vivo. Conditions: for ED50: Mus musculus, iv, read-out: ED50 (narcosis potentiating effect); for Therapeutical index (narcosis potentiating): Table I, LD50/ED50, mice; for ED50 (narcosis potentiating effect): mice, Hexobarbital i.v., effect = sleeping time 2.5 times longer than control. The method, then: (2) Narcosis potentiating effect
To mice having a body weight of 20-24 g Hexobarbital is administered intravenously in a dose of […]. The sleeping time of the treated and control animals is measured.

Data set [2] can be described thus: Acute toxicity on mice (oral). Conditions: mouse, in vivo, 4 days observation. The format is in vivo. The method, then:
(§1) (1) Acute toxicity on mice
(§2) The acute toxicity is determined on male and female white mice of the CFLP strain. The body weight of the animals amounts to 18-24 g. The test compound is administered orally in a dose of 20 ml/kg. After treatment the animals are placed in a mouse box and kept on scrapings litter at room temperature. The animals receive mouse fodder and tap water ad libitum.

The test system of data set [3] is writhing reactions. In words: Analgesic effect on mice (acetic acid writhing). The data set is classed as in vivo. Conditions: for ED50: Mus musculus, po, 1 h, read-out: ED50 (analgesic effect); for Therapeutical index (analgesic): Table II, LD50/ED50, mice; for ED50 (analgesic effect) / ED50 (analgesic effect), inactive: mice, oral; for ED50 (analgesic effect): one hour prior to 0.5% acetic acid. The method, then: (3) Analgesic effect on mice
To mice 0.4 ml of 0.5% acetic acid is […] administered. After 5 minutes the characteristic writhing reactions are counted for a period of 5 minutes. The test compound is administered orally one hour prior to the administration of acetic acid. The activity is expressed in the percentage of the data obtained for the control group.

Data set [4] has as its system white mice of the CFLP strain. In words: Acute toxicity on mice (oral). To be noted: 4 days observation. The data set is classed as in vivo. The method, then:
as §1, §2

Data set [5] can be described thus: Acute toxicity i.v. (LD50 of Table IV). To be noted: rat, in vivo.
Data set [6] concerns aconitine. In words: animal or person. The format is in vivo, rats. To be noted: for ED50: Rattus norvegicus, iv, read-out: Percental aconitine inhibition ED50; for Therapeutical index (antiarrhythmial): Table IV, LD50 i.v./ED50; for Percental inhibition of aconitine: rats, 2 minutes before aconitine. The method, then: (4) Antiarrhythmial effect on rats
The antiarrhythmial effect is determined on rats (both male and female; body weight 160-200 g) according to the modified test of Marmo et al. [Marmo et al.: Arzneimittelforschung 20, 12 (1970)]. Aconitine is intravenously administered in the form of a bolus injection. The ECG deviations are followed for 5 minutes by a standard II method. The test compound is administered intravenously 2 minutes before the addition of aconitine.
In Table IV the antiarrhythmial effect of a representative compound of the present invention is compared to that of a very active compound specifically disclosed in Hungarian Pat. No. 169,298. The test is carried out as disclosed in connection with Table III.

From patent US4727074A, “2-(phenylmethylene)-1-(diaminoalkoxy) cycloalkanes and their pharmaceutical uses” (priority 1983, dated 1988) come the findings set out here.

In the case of `C(=C1/CCCC/C1=N\OCCCN1CCN(c2ccccc2)CC1)/c1ccccc1` [Example 1, 2-[(E)-phenylmethylene]-1-[(E)-(4'-phenyl-piperazinyl-propoxyimino)]-cyclohexane], in data set [1], the ED50 worked out at 200 mg/kg and the “Therapeutical index (narcosis potentiating)” value is reported as 10.0. Besides, in data set [2] (po, Table I), the LD50 at 96 h worked out at 2000 mg/kg. For the same compound, the LD50 at 96 h in data set [2] (po, Table II) was greater than 2000 mg/kg. Moreover, in data set [3], the ED50 was 200 mg/kg and the “Therapeutical index (analgesic)” value is on record as greater than 10.0.
In turn, `Clc1cccc(/C=C2\CCCCC\C2=N/OCCCN2CCN(Cc3ccccc3)CC2)c1` [Example 2, 2-[(E)-(m-chloro-phenylmethylene)]-1-[(E)-(4'-benzylpiperazinyl-propoxyimino)]-cycloheptane] registered an LD50 in data set [4] (Table II) of 740 mg/kg. In data set [3], the “Therapeutical index (analgesic)” value is 17.2 and the “ED50 (analgesic effect)” value was determined as 43 mg/kg.
In turn, `CC(C)N(CCCO/N=C1\CCCC\C1=C/c1ccc(Cl)cc1)C(C)C` [Example 3, 2-[(E)-(p-chloro-phenylmethylene)]-1-[(E)-(3'-diisopropylamino-propoxyimino)]-cyclohexane] displayed a 50% lethal dose (LD50) at 96 h in data set [2] (po, Table II) of 1100 mg/kg. Moreover, in data set [3], the ED50 worked out at 45 mg/kg and the “Therapeutical index (analgesic)” value is 24.2.
`CC(C)N(CCCO/N=C1\CCCC\C1=C/c1ccccc1)C(C)C` [Example 4, 2-[(E)-phenylmethylene]-1-[(E)-(3'-diisopropylamino-propoxyimino)]-cyclohexane] showed an LD50 in data set [5] of 12.5 mg/kg. Also, in data set [6], the ED50 turned out to be 0.54 mg/kg and the “Therapeutical index (antiarrhythmial)” value is 23.14. In data set [6] (dose 1 mg/kg i.v.), the “Percental inhibition of aconitine” value is on record as 86.2 Percental.
As for `CC(C)N(CCO/N=C1\CCCCC\C1=C\c1ccccc1)C(C)C` [Example 5, 2-[(Z)-phenylmethylene]-1-[(E)-(2'-diisopropylamino-ethoxyimino)]-cycloheptane], in data set [1], the ED50 is 40 mg/kg and the “Therapeutical index (narcosis potentiating)” value is 20.0. The compound further returned an LD50 at 96 h in data set [2] (po, Table I) of 800 mg/kg. Further, in data set [6] (dose 4 mg/kg i.v.), the “Percental inhibition of aconitine” value was determined as 34.7 Percental.
In the case of `CC(CO/N=C1\CCCCC\C1=C/c1ccccc1)N(C)C` (stereo not drawn) [Example 8, 2-[(E)-phenylmethylene]-1-[(E)-(2'-dimethylamino-2'-methyl-1-ethoxyimino)]-cycloheptane], in data set [1], the ED50 is 22 mg/kg and the “Therapeutical index (narcosis potentiating)” value came to 36.4. In addition, the median lethal dose (LD50) at 96 h in data set [2] (po, Table I) turned out to be 800 mg/kg.
For `CC(CO/N=C1\CCCC\C1=C/c1ccccc1)N(C)C` (stereo not drawn) [Example 9, 2-[(E)-phenylmethylene]-1-[(E)-(2'-dimethylamino-2'-methyl-1-ethoxyimino)]-cyclohexane], in that order: 23 mg/kg, 26.0 and 600 mg/kg.
In turn, `CC(C)N(CCO/N=C1\CCCCCC\C1=C/c1ccccc1)C(C)C` [Example 10, 2-[(E)-phenylmethylene]-1-[(E)-(2'-diisopropylamino-ethoxyimino)]-cyclooctane] returned an LD50 at 96 h in data set [2] (po, Table II) of 400 mg/kg. Also, in data set [3], the ED50 amounted to 58 mg/kg and the “Therapeutical index (analgesic)” value came out at 6.9. The “Percental inhibition of aconitine” value in data set [6] (dose 4 mg/kg i.v.) is 57.6 Percental.
Turning to `CN(C)CCCO/N=C1\CCCCCC\C1=C/c1ccccc1` [Example 11], in data set [1], the “Therapeutical index (narcosis potentiating)” value is given as 500.0 and the “ED50 (narcosis potentiating effect)” value stood at 2 mg/kg. The LD50 in data set [4] (Table I) stood at 1000 mg/kg. Moreover, the 50% lethal dose (LD50) in data set [4] (Table II) came out at 1000 mg/kg. Moreover, in data set [3], the “Therapeutical index (analgesic)” value is given as 6.7 and the “ED50 (analgesic effect)” value was 150 mg/kg.
As to `CC(C)N(CCO/N=C1\CCCC\C1=C/c1ccccc1)C(C)C` [Example 12], in data set [6] (dose 2 mg/kg i.v.), the “Percental inhibition of aconitine” value was 39.2 Percental.
Turning to `CN(C)CCO/N=C1\CCCC\C1=C/c1ccc(Cl)cc1` [Example 13], in data set [1], the ED50 was found to be 10 mg/kg and the “Therapeutical index (narcosis potentiating)” value amounted to 200.0. In data set [2] (po, Table I), the LD50 at 96 h was 2000 mg/kg. Also, the “Percental inhibition of aconitine” value in data set [6] (dose 2 mg/kg i.v.) worked out at 35.3 Percental.
Turning to `CCN(CC)CC(=O)Nc1c(C)cccc1C` [Lidocaine, N,N-diethyl-2,6-dimethyl-acetanilide, reference compound], the “Percental inhibition of aconitine” value in data set [6] (dose 4 mg/kg i.v.) was 23.5 Percental.
Regarding `CCCC(C)(COC(N)=O)COC(N)=O` [Meprobamate, 2-methyl-2-n-propyl-1,3-propanediol-dicarbamate, reference compound], in data set [1], the ED50 amounted to 260 mg/kg and the “Therapeutical index (narcosis potentiating)” value turned out to be 4.2. For the same compound, the LD50 at 96 h in data set [2] (Table I) came to 1100 mg/kg.
`CC(=O)Nc1ccc(O)cc1` [Paracetamol, 4-hydroxy-acetanilide, reference compound]: the ED50 in data set [3] worked out at 180 mg/kg.
In the case of `CN(C)CCCON=C1CCCCC1Cc1ccccc1` (stereo not drawn) [Reference compound A, 2-benzyl-1-(3'-dimethylamino-propoxy-imino)-cyclohexane, reference compound], in data set [1], the “ED50 (narcosis potentiating effect)” value is “inactive in a dose of 50 mg/kg”. In data set [2] (po, Table II), this compound came in with an LD50 at 96 h of 250 mg/kg.
As to `COc1ccccc1C=C1CCCCC1=NOCC(C)CN(C)C` (stereo not drawn) [Reference compound C, 1-(2'-methyl-3'-dimethylaminopropoxyimino)-2-(o-methoxy-benzal)-cyclohexane, reference compound], the “ED50 (narcosis potentiating effect)” value in data set [1] is “inactive in a dose of 100 mg/kg”.
The same measure, in the same setting: as for `CN(C)CCCON=C1CCCCC1Cc1ccc(Cl)cc1` (stereo not drawn) [Reference compound E, 1-(3'-dimethylamino-propoxyimino)-2-(p-chlorobenzyl)-cyclohexane, reference compound], the entry is “inactive in a dose of 170 mg/kg”.
With `COc1ccc(C=C2CCCCC2=NOCCCN(C)C)cc1` [Reference compound F, 1-(3'-dimethylamino-propoxyimino)-2-(p-methoxybenzal)-cyclohexane, reference compound], the LD50 at 96 h in data set [2] (po, Table II) was determined as 1750 mg/kg. The “ED50 (analgesic effect), inactive” value in data set [3] (in a dose of 350 mg/kg) was “inactive”.
Consider `CC(C)N(CCON=C1CCCCCC1=Cc1ccccc1)C(C)C` [Reference compound G, 2-benzal-1-(2'-diisopropylamino-ethoxyimino)-cycloheptane, reference compound], for which the LD50 at 96 h in data set [2] (po, Table II) stood at 325 mg/kg. Besides, the LD50 in data set [5] is 21.2 mg/kg. Moreover, in data set [3] (in a dose of 65 mg/kg), the “ED50 (analgesic effect), inactive” value is “inactive”. Besides, in data set [6], the ED50 is 2 mg/kg and the “Therapeutical index (antiarrhythmial)” value stood at 10.59.

As a reminder, the ED50 is the midpoint of the dose-response relation. One may read the LD50 as the dose at which mortality reaches 50%. Higher therefore signals a less toxic substance.
